In the supplement of paper PMC10307832:

What was measured:
Assay in all cases: relative viability (nuclei count vs DMSO), 5 days (fraction); higher = more cells survive
[1] = compound: C1=CC=C(C(=C1)C2=CC=C(C=C2)C3=CSC4=C3C(=C(C(=O)N4)C#N)O)O + Cc1cc(Nc2cc(N3CCN(C)CC3)nc(Sc3ccc(NC(=O)C4CC4)cc3)n2)n[nH]1 [Tozasertib] (partner 0.1 µM)
Outline: (§1)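 Relative viability divides the nuclei count in treated wells by that in vehicle wells. Lung cancer cell lines were seeded in 1536-well plates, dosed by pin tool the next day, and fixed and stained after 5 days in one step with final 0.05% Triton X-100, 1% formaldehyde and 1 ug/ml Hoechst. Dosing was a single drug or a fixed anchor-drug dose plus five library-drug doses (not always all listed) in √10 steps, and values are medians of duplicate plates imaged at 4×.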

[2] = compound: C1=CC=C(C(=C1)C2=CC=C(C=C2)C3=CSC4=C3C(=C(C(=O)N4)C#N)O)O + O=C(c1cc(Cc2n[nH]c(=O)c3ccccc23)ccc1F)N1CCN(C(=O)C2CC2)CC1 [Olaparib] (partner 8 µM)
Outline: as §1

TGX 221 + Phenformin = compound: CC1=CN2C(=O)C=C(N=C2C(=C1)C(C)NC3=CC=CC=C3)N4CCOCC4 [TGX 221] + N=C(N)NC(=N)NCCc1ccccc1 [Phenformin] (partner 250 µM)
Outline: as §1

TGX 221 + Linsitinib = compound: CC1=CN2C(=O)C=C(N=C2C(=C1)C(C)NC3=CC=CC=C3)N4CCOCC4 [TGX 221] + C[C@]1(O)C[C@@H](c2nc(-c3ccc4ccc(-c5ccccc5)nc4c3)c3c(N)nccn32)C1 [Linsitinib] (partner 1 µM)
Outline: as §1

Cell Line | relative viability ([1]; first compound 0.08 µM) | relative viability ([1]; first compound 0.253 µM) | relative viability ([1]; first compound 0.8 µM) | relative viability ([1]; first compound 2.53 µM) | relative viability ([1]; first compound 8 µM) | relative viability ([2]; first compound 0.08 µM) | relative viability ([2]; first compound 0.253 µM) | relative viability ([2]; first compound 0.8 µM) | relative viability ([2]; first compound 2.53 µM) | relative viability ([2]; first compound 8 µM) | relative viability (TGX 221 + Phenformin; first compound 0.08 µM) | relative viability (TGX 221 + Phenformin; first compound 0.253 µM) | relative viability (TGX 221 + Phenformin; first compound 0.8 µM) | relative viability (TGX 221 + Phenformin; first compound 2.53 µM) | relative viability (TGX 221 + Phenformin; first compound 8 µM) | relative viability (TGX 221 + Linsitinib; first compound 0.08 µM) | relative viability (TGX 221 + Linsitinib; first compound 0.253 µM) | relative viability (TGX 221 + Linsitinib; first compound 0.8 µM) | relative viability (TGX 221 + Linsitinib; first compound 2.53 µM) | relative viability (TGX 221 + Linsitinib; first compound 8 µM)
NCI-H2023 | 0.257 | 0.38 | 0.38 | 0.476 | 0.439 | 0.467 | 0.49 | 0.495 | 0.487 | 0.607 | 0.431 | 0.373 | 0.397 | 0.39 | 0.288 | 0.546 | 0.469 | 0.395 | 0.321 | 0.218
NCI-H2085 | 0.8 | 0.801 | 0.874 | 0.749 | 0.74 | 0.754 | 0.847 | 0.771 | 0.796 | 0.702 | 0.817 | 0.562 | 0.588 | 0.462 | 0.425 | 0.947 | 0.774 | 0.673 | 0.309 | 0.408
NCI-H2087 | 0.213 | 0.258 | 0.225 | 0.244 | 0.2 | 0.513 | 0.587 | 0.667 | 0.811 | 0.496 | 0.425 | 0.455 | 0.524 | 0.472 | 0.471 | 1.07 | 1.05 | 1.16 | 1.03 | 0.94
NCI-H2126 | 0.687 | 0.956 | 0.893 | 0.923 | 0.809 | 0.888 | 0.976 | 0.95 | 0.955 | 0.786 | 0.483 | 0.487 | 0.535 | 0.515 | 0.507 | 0.632 | 0.604 | 0.579 | 0.576 | 0.593
NCI-H2228 | 0.288 | 0.244 | 0.245 | 0.297 | 0.277 | 0.425 | 0.604 | 0.568 | 0.613 | 0.575 | 0.377 | 0.317 | 0.256 | 0.312 | 0.258 | 0.411 | 0.624 | 0.625 | 0.29 | 0.344
NCI-H2347 | 0.574 | 0.461 | 1.06 | 0.526 | 0.583 | 0.645 | 0.632 | 0.569 | 0.634 | 0.579 | 0.427 | 0.385 | 0.389 | 0.234 | 0.213 | 0.931 | 0.972 | 0.936 | 0.885 | 0.786
NCI-H2405 | 0.718 | 0.797 | 0.733 | 0.725 | 0.704 | 0.896 | – | 0.928 | 0.825 | 0.878 | 0.386 | 0.405 | 0.379 | 0.44 | 0.338 | 0.595 | 0.698 | 0.639 | 0.697 | 0.573
